Where two headings read alike, the source gives them in different places.

The results in this text go back to US20050209195A1, “Indolinone derivatives” (Cell Therapeutics Europe S.r.I, priority 2004, published 2005).

Data set [1] deals with NIH3T3^MEN2A(C634R) cells. As to the kind of experiment: Reversal of morphologically transformed phenotype, contrast phase microscopy, 24 h. It counts as cell-based, murine. The note with it: 24 h treatment; for minimal effective concentration: Mus musculus, NIH3T3MEN2A, read-out: Morphology a 24 h: concentration from which reversal was observed. The protocol:
(§1) NIH3T3 Murine fibroblasts and the transfected line NIH3T3^MEN2A(C634R) were treated with increasing concentrations of the compounds of the invention for 72 h. Survival curves were obtained by Coulter Counter cell count. IC50s calculated from said curves are reported in Table 9: the higher sensitivity of the oncoprotein-expressing cell line is evident. The reversal of the morphologically transformed phenotype of NIH3T3^MEN2A (C634R) cells in the presence of the compounds of the invention was evaluated by contrast phase microscopy after 24 h treatment and photographically documented.

Data set [2] has as its target T1, human Ret TKR-catalytic domain (Homo sapiens, UniProt P07949).
T1 construct: human Ret TKR-catalytic domain; purchased ProQinase
T1 sequence (P07949 724-1016 limits assumed): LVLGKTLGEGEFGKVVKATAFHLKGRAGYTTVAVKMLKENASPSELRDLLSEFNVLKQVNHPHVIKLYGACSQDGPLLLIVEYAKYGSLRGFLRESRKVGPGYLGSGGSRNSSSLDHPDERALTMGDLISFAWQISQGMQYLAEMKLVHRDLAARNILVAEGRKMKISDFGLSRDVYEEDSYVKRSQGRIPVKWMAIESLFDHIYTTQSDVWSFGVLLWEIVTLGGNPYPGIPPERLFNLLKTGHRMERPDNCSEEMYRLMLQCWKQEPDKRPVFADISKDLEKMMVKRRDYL
Description: DELFIA Ret Kinase Assay (cell-free). It counts as biochemical. On the procedure:
In order to evidence and quantify inhibitory activity on Ret tyrosine kinase, the most representative compounds of the invention were tested with a dedicated DELFIA kinase assay, using a human tyrosine-kinase receptor (Ret TKR) recombinant form (human Ret TKR-catalytic domain) available from ProQinase as the tyrosine kinase.
After 10 min. incubation at 30° C., the kinase reactions were worked up as in the DELFIA cKit Kinase Assay.

Data set [3] concerns NIH3T3^MEN2A(C634R) cells. As to the kind of experiment: Survival curves by Coulter Counter cell count, 72 h. It counts as cell-based, murine. Particulars: Mus musculus, NIH3T3MEN2A, 72 h treatment, read-out: Cont at 72 h IC50. On the procedure: as §1
For data set [4], the target named is T2, Human cKit Tyrosine Kinase Receptor (human cKit RTK-catalytic domain) (Homo sapiens, UniProt P10721).
T2 construct: human cKit RTK-catalytic domain; purchased Panvera-Invitrogen P3080
As to the kind of experiment: DELFIA cKit Tyrosine Kinase Assay (cell-free). The data set is classed as biochemical. On the procedure: The compounds of the invention were tested with a dedicated cell-free kinase assay for the evaluation of the inhibiting activity on tyrosine kinases.
In more detail, the assay was a DELFIA™ (Dissociation Enhanced Time-Resolved Fluorometric Assay) Tyrosine Kinase Assay™ (PerkinElmer), a highly sensitive, reproducible ELISA assay that allows to evaluate the activity of a tyrosine kinase.
Human cKit Tyrosine Kinase Receptor (human cKit RTK-catalytic domain), commercially available from Panvera-Invitrogen (Cat. N^o. P3080), was used as the tyrosine kinase.
After 1 hour incubation at room temperature and three washings with 1×DELFIA Wash Buffer (PerkinElmer), the phosphotyrosine residues of the acceptor were detected with an europium-labelled anti-phosphotyrosine monoclonal antibody (DELFIA Eu-N1 labelled anti-phosphotyrosine antibody PT66, PerkinElmer) and, after a further hour incubation at room temperature and three washings with 1×DELFIA Wash Buffer, overall phosphorylation of biotinylated polyGAT was determined by addition of Enhancement Solution (PerkinElmer) and fluorimetric analysis of the plates (α-Fusion FP HT, PerkinElmer) in the “Time-Resolved Fluorescence” mode.

Setting [5] is: cell-free DELFIA, 50 ng Ret TKR, 3 μM ATP, 10 min. at 30° C., read-out: IC50.
The mark [6] stands for this setting: cell-free DELFIA, 25 ng cKit TKR, 150 μM ATP, 20 minutes at 30° C., read-out: IC50.

T2 sequence (P10721 589-937 limits assumed): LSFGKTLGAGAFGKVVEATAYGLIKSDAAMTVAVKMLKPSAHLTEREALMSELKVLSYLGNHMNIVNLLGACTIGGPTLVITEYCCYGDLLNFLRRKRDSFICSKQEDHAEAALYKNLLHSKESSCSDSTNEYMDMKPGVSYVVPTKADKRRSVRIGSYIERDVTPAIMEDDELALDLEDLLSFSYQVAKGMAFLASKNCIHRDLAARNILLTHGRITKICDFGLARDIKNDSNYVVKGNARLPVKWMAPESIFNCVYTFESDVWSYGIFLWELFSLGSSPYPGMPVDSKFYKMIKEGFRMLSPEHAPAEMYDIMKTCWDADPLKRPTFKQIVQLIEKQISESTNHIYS

For `COc1cc2c(cc1OC)/C(=C\c1ccc(OC(=O)N3CCN(CCOCCO)CC3)cc1)C(=O)N2` [B.6, 4-[2-(2-Hydroxyethoxy)ethyl]piperazine-1-carboxylic Acid (E)-4-(5,6-dimethoxy-2-oxo-1,2-dihydro-indol-3-ylidenemethyl)phenyl Ester], the “Morphology a 24 h” value in data set [1] was “REVERSAL”. Besides, the minimal effective concentration in data set [1] was no less than 10 µM. Also, the IC50 in data set [2] (setting [5]) turned out to be 6.65 µM; in data set [3], 5600 ± 1800 nM; in data set [4] (setting [6]), 7470 nM.

Regarding `COc1cc2c(cc1OC)/C(=C\c1ccc(OC(=O)c3cnccn3)cc1)C(=O)N2` [F.5, Pyrazine-2-carboxylic Acid, (E)-4-(5,6-dimethoxy-2-oxo-1,2-dihydro-indol-3-ylidenemethyl)phenyl Ester], the melting point was greater than 250 °C.

Take `COc1cc2c(cc1OC)/C(=C\c1ccc(OC(C)=O)cc1)C(=O)N2` [E.2, Acetic Acid, (E)-4-(5,6-dimethoxy-2-oxo-1,2-dihydro-indol-3-ylidenemethyl)phenyl Ester]: the melting point lay in the range of 189 to 191 °C. In data set [1], the “Morphology a 24 h” value was “REVERSAL” and the minimal effective concentration is no less than 5 µM. For the same compound, the IC50 in data set [3] is 1500 ± 50 nM.

In turn, `COc1cc2c(cc1OC)/C(=C\c1ccc(OC(=O)c3cccn3C)cc1)C(=O)N2` [Example F.4, 1-Methyl-1H-pyrrole-2-carboxylic Acid, (E)-4-(5,6-dimethoxy-2-oxo-1,2-dihydro-indol-3-ylidenemethyl)phenyl Ester] had a melting point of 165 to 167 °C.

Regarding `COc1cc2c(cc1OC)/C(=C\c1ccc(OC(=O)N(CCO)CCO)cc1)C(=O)N2`, the melting point fell in the range of 183 to 185 °C.

Take `CCCCCNC(=O)Oc1ccc(/C=C2/C(=O)Nc3cc(OC)c(OC)cc32)cc1` [A.3, n-Pentyl Carbamic Acid, (E)-4-(5,6-dimethoxy-2-oxo-1,2-dihydro-indol-3-ylidenemethyl)phenyl Ester]: the melting point lay in the range of 173 to 175 °C. Moreover, in data set [1], the “Morphology a 24 h” value is recorded as “REVERSAL” and the minimal effective concentration is no less than 5 µM. In addition, in data set [2] (setting [5]), the IC50 amounted to 1.78 µM. Moreover, the IC50 in data set [3] is 2200 ± 700 nM. The IC50 in data set [4] (setting [6]) worked out at 380 ± 160 nM.

`CCCCCCCCCC(=O)Oc1ccc(/C=C2\C(=O)Nc3cc(OC)c(OC)cc32)cc1` [Example G.1, n-decanoic Acid, (Z)-4-(5,6-dimethoxy-2-oxo-1,2-dihydro-indol-3-ylidenemethyl)phenyl Ester] displayed a melting point of 95 to 97 °C.

On to `COc1cc2c(cc1OC)/C(=C\c1ccc(OC(=O)c3cccnc3)cc1)C(=O)N2` [E.3, Nicotinic Acid, (E)-4-(5,6-dimethoxy-2-oxo-1,2-dihydro-indol-3-ylidenemethyl)phenyl Ester], for which the melting point was in the range of 227 to 229 °C.

As for `COc1cc2c(cc1OC)/C(=C\c1ccc(OC(=O)NC(C)(C)C)cc1)C(=O)N2`, the melting point lay within 238 to 240 °C.

`CCCCCCCCCC(=O)Oc1ccc(/C=C2/C(=O)Nc3cc(OC)c(OC)cc32)cc1` [Example F.1, n-decanoic Acid, (E)-4-(5,6-dimethoxy-2-oxo-1,2-dihydro-indol-3-ylidenemethyl)phenyl Ester] gave a melting point of 138 to 140 °C.

For `COc1cc2c(cc1OC)/C(=C\c1ccc(OC(=O)c3ccccc3)cc1)C(=O)N2` [Example E.1, Benzoic Acid, (E)-4-(5,6-dimethoxy-2-oxo-1,2-dihydro-indol-3-ylidenemethyl)phenyl Ester], the melting point was in the range of 228 to 230 °C.

For `COCCOCCOCC(=O)Oc1ccc(/C=C2/C(=O)Nc3cc(OC)c(OC)cc32)cc1` [F.3, [2-(2-Methoxy-ethoxy)-ethoxy]acetic Acid, (E)-4-(5,6-dimethoxy-2-oxo-1,2-dihydro-indol-3-ylidenemethyl)phenyl Ester], the melting point lay within 117 to 119 °C. Also, in data set [2] (setting [5]), the IC50 amounted to 3.79 µM. In data set [4] (setting [6]), the IC50 is 5080 nM.

Compound `COc1cc2c(cc1OC)/C(=C\c1ccc(OC(=O)Nc3ccccc3)cc1)C(=O)N2` [Example A.1, Phenylcarbamic Acid, (E)-4-(5,6-dimethoxy-2-oxo-1,2-dihydro-indol-3-ylidenemethyl)phenyl Ester] showed a melting point of 201 to 203 °C. Also, the IC50 in data set [2] (setting [5]) stood at 8.39 µM. For the same compound, the IC50 in data set [4] (setting [6]) was 1660 nM.

Take `CCOP(=O)(OCC)Oc1ccc(/C=C2/C(=O)Nc3cc(OC)c(OC)cc32)cc1` [Example C.2, (E)-4-(5,6-dimethoxy-2-oxo-1,2-dihydro-indol-3-ylidenemethyl)phenyl Diethyl Phosphate]: the “Morphology a 24 h” value in data set [1] is given as “REVERSAL”. Besides, the minimal effective concentration in data set [1] is no less than 5 µM. Also, the IC50 in data set [2] amounted to 63.5 µM; in data set [3], 1700 ± 100 nM; in data set [4] it was 5090 nM.

The compound `COc1ccc(NC(=O)Oc2ccc(/C=C3/C(=O)Nc4cc(OC)c(OC)cc43)cc2)cc1` displayed a melting point of 189 to 191 °C.

For `COc1cc2c(cc1OC)/C(=C\c1ccc(OC(=O)N3CCN(c4ccccc4)CC3)cc1)C(=O)N2` [B.7, 4-Phenylpiperazine-1-carboxylic Acid, (E)-4-(5,6-dimethoxy-2-oxo-1,2-dihydro-indol-3-ylidenemethyl)phenyl Ester], the melting point is greater than 260 °C. Moreover, the IC50 in data set [2] (setting [5]) came out at 3.23 µM. The IC50 in data set [4] (setting [6]) stood at 2780 nM.

As to `COc1cc2c(cc1OC)/C(=C/c1ccc(OC(=O)c3cccn3C)cc1)C(=O)N2` [G.3, 1-Methyl-1H-pyrrole-2-carboxylic Acid, (Z)-4-(5,6-dimethoxy-2-oxo-1,2-dihydro-indol-3-ylidenemethyl)phenyl Ester], the values for the IC50 in data set [2] (setting [5]) and in data set [4] (setting [6]) were 6.38 µM and 2650 nM, respectively.

Compound `CCCCCCNC(=O)Oc1ccc(/C=C2/C(=O)Nc3cc(OC)c(OC)cc32)cc1` [A.4, n-Hexyl Carbamic Acid, (E)-4-(5,6-dimethoxy-2-oxo-1,2-dihydro-indol-3-ylidenemethyl)phenyl Ester] yielded a melting point of 168 to 170 °C. The IC50 in data set [2] (setting [5]) worked out at 5.73 µM. Moreover, in data set [4] (setting [6]), the IC50 was found to be 135 nM.

For `COc1cc2c(cc1OC)/C(=C\c1ccc(OCCO)cc1)C(=O)N2` [D.1, (E) 3-[4-(2-hydroxyetoxy)benzylidene]-5,6-dimethoxy-1,3-dihydro-indol-2-one], in data set [1], the “Morphology a 24 h” value was “REVERSAL”. Besides, the minimal effective concentration in data set [1] is no less than 10 µM. Further, the IC50 in data set [2] (setting [5]) was determined as 1.12 µM; in data set [3] it was 4300 ± 600 nM; in data set [4] (setting [6]), 3630 nM.

In the case of `COc1cc2c(cc1OC)/C(=C\c1ccc(OC(=O)N3CCOCC3)cc1)C(=O)N2` [B.2, Morpholine-4-carboxylic Acid, (E)-4-(5,6-dimethoxy-2-oxo-1,2-dihydro-indol-3-ylidenemethyl)phenyl Ester], the melting point was 255 to 257 °C.

In the case of `COc1cc2c(cc1OC)/C(=C/c1ccc(OC(=O)CCCCNC(=O)OC(C)(C)C)cc1)C(=O)N2` [G.2, 5-tert-Butoxycarbonylamino-pentanoic Acid, (Z)-4-(5,6-dimethoxy-2-oxo-1,2-dihydro-indol-3-ylidenemethyl)phenyl Ester], the IC50 in data set [2] (setting [5]) was found to be 3.45 µM; in data set [4] (setting [6]) it was 770 nM.

For the compound `COc1ccc(OC(=O)Oc2ccc(/C=C3\C(=O)Nc4cc(OC)c(OC)cc43)cc2)cc1` [Example H.2, (Z)-4-(5,6-dimethoxy-2-oxo-1,2-dihydro-indol-3-ylidenemethyl)phenyl, 4-methoxyphenyl Carbonate], the IC50 in data set [2] (setting [5]) worked out at 4.84 µM; in data set [4] (setting [6]), 280 nM.

Turning to `COc1cc2c(cc1OC)/C(=C\c1ccc(OC(=O)CCCCNC(=O)OC(C)(C)C)cc1)C(=O)N2` [Example F.2, 5-tert-Butoxycarbonylamino-pentanoic Acid, (E)-4-(5,6-dimethoxy-2-oxo-1,2-dihydro-indol-3-ylidenemethyl)phenyl Ester], the melting point was in the range of 101 to 103 °C. Further, the IC50 in data set [2] (setting [5]) was found to be 1.37 µM. Besides, the IC50 in data set [4] (setting [6]) came to 1200 nM.
